Measured values from ChEMBL document CHEMBL3132753, “Synthesis and biological evaluation of 2-acetamidothiophene-3-carboxamide derivatives against Leishmania donovani” (Medchemcomm, 2014).

Assays:
[1] = tested on: Leishmania donovani; assay: Antileishmanial activity against promastigote stage of Leishmania donovani MHOM/ET/67/HU3 assessed as parasite viability after 48 hrs by resazurin dye-based assay; format: functional, organism-based; details: MHOM/ET/67/HU3, 48 h
[2] = Cytotoxicity against human THP1 cells; format: cell-based; details: THP-1 cells
[3] = tested on: Leishmania donovani; assay: Antileishmanial activity against amastigote stage of Leishmania donovani MHOM/ET/67/HU3 infected in human THP1 cells assessed as parasite clearance after 3 days by Draq5 staining-based confocal microscopic analysis; format: functional, organism-based; details: MHOM/ET/67/HU3, THP-1, 72 h
[4] = Selectivity index, ratio of CC50 for human THP1 cells to EC50 for amastigote stage of Leishmania donovani MHOM/ET/67/HU3; format: toxicity, cell-based; details: THP-1 cells, read-out: Ratio CC50/EC50

| SMILES | EC50 [1] [µM] | CC50 [2] [µM] | EC50 [3] [µM] | selectivity ratio [4] |
| --- | --- | --- | --- | --- |
| COc1ccc(NC(=O)c2c(NC(=O)C(F)(F)F)sc3c2CCCCC3)cc1 | > 50 | > 50 | 6.41 | > 7.8 |
| Cc1ccc(NC(=O)c2c(NC(=O)C(F)(F)F)sc3c2CCCCC3)cc1 | – | > 50 | > 50 | – |
| CC(C)(C)OC(=O)c1c(N)sc2c1CCCCC2 | – | > 50 | > 50 | – |
| COc1ccccc1NC(=O)c1c(NC(=O)C(F)(F)F)sc2c1CCCCC2 | 42 | > 50 | > 50 | – |
| O=C(Nc1ccc(Cl)cc1)c1c(NC(=O)C(F)(F)F)sc2c1CCCCC2 | – | > 50 | > 50 | – |
| O=C(Nc1ccc(C(F)(F)F)cc1)c1c(NC(=O)C(F)(F)F)sc2c1CCCCC2 | > 50 | 17.2 | 17.6 | 0.9 |
| O=C(Nc1ccc(OC(F)(F)F)cc1)c1c(NC(=O)C(F)(F)F)sc2c1CCCCC2 | > 50 | 11.9 | 9.85 | 1.2 |
| N#Cc1ccc(NC(=O)c2c(NC(=O)C(F)(F)F)sc3c2CCCCC3)cc1 | > 50 | 9.11 | 8.53 | 1.06 |
| COc1ccc(CNC(=O)c2c(NC(=O)C(F)(F)F)sc3c2CCCCC3)cc1 | > 50 | > 50 | > 50 | – |
| CC(C)(C)NC(=O)c1c(NC(=O)C(F)(F)F)sc2c1CCCCC2 | – | > 50 | > 50 | – |
| COc1ccc(NC(=O)c2c(NC(C)=O)sc3c2CCCCC3)cc1 | > 50 | > 50 | > 50 | – |
| COC(=O)Nc1sc2c(c1C(=O)Nc1ccc(OC)cc1)CCCCC2 | – | > 50 | > 50 | – |
| COc1ccc(NC(=O)c2c(NC(=O)c3ccccc3)sc3c2CCCCC3)cc1 | – | > 50 | > 50 | – |
| CC(=O)Nc1sc2c(c1C(=O)OC(C)(C)C)CCCCC2 | – | > 50 | > 50 | – |
| COc1ccc(NC(=O)c2c(NC(=O)C(F)(F)F)sc3c2CCCC3)cc1 | > 50 | > 50 | 14.6 | > 3.42 |
| COc1ccc(NC(=O)c2c(NC(=O)C(F)(F)F)sc3c2CCC3)cc1 | – | > 50 | > 50 | – |
| COc1ccc(NC(=O)c2c(NC(=O)C(F)(F)F)sc(C)c2C)cc1 | > 50 | > 50 | 10.1 | > 4.95 |
| COc1ccc(NC(=O)c2ccsc2NC(=O)C(F)(F)F)cc1 | > 50 | > 50 | > 50 | – |
| COc1cccc(NC(=O)c2c(NC(=O)C(F)(F)F)sc3c2CCCCC3)c1 | 21.5 | 37.6 | 10.1 | 3.71 |
| C[C@@H]1[C@H](O)[C@@H](C)/C=C/C=C/C=C/C=C/C=C/C=C/C=C/[C@H](O[C@@H]2O[C@H](C)[C@@H](O)[C@H](N)[C@@H]2O)C[C@@H]2O[C@](O)(C[C@@H](O)C[C@@H](O)[C@H](O)CC[C@@H](O)C[C@@H](O)CC(=O)O[C@H]1C)C[C@H](O)[C@H]2C(=O)O [AMPHOTERICIN B] | 0.18 | 7.57 | 0.25 | 30.2 |
| CCCCCCCCCCCCCCCCOP(=O)([O-])OCC[N+](C)(C)C [MILTEFOSINE] | 7.4 | 22.7 | 7.1 | 3.19 |
